# “Also recorded” adds a separate entry of the source.
# Columns and labels:
# [1] = system: mammary gland tumor; experiment: Tumor model: mammary gland tumor; type: in vivo, mice; settings: mammary gland tumor (FIG. 22A, 23A)
# Text: (§1) FIGS. 23A-H is a set of curves showing the tumor growth of mice treated with PBS (Control, circles) or guanabenz (GBZ, triangles) in different tumor models: such as mammary gland tumor (FIG. 23A), hepatocellular carcinoma (FIG. 23B), T cell lymphoma (FIG. 23C), lung cancer (FIG. 23D), myeloma (FIG. 23E), mammary adenocarcinoma (FIG. 23F), renal cancer (FIG. 23G) and fibrosarcoma (FIG. 23H).
# [2] = system: T cell lymphoma; experiment: Tumor model: T cell lymphoma; type: in vivo, mice; settings: T cell lymphoma (FIG. 22C, 23C)
# Text: as §1
# [3] = system: myeloma; experiment: Tumor model: myeloma; type: in vivo, mice; settings: myeloma (FIG. 22E, 23E)
# Text: as §1
# [4] = system: B16F1 melanoma; experiment: B16F1 melanoma in immune competent mice; type: in vivo; settings: B16F1 in immune competent C57BL/6 mice; 5 mg/kg, i.p.; monotherapy
# Procedure: (§2) FIGS. 10A-B is a set of curves showing the tumor growth of B16F1 melanoma in C57BL/6J (FIG. 10A) or immunodeficient NSG mice (FIG. 10B) treated with PBS (Control, curve 1) or clonidine (5 mg/kg, i.p., curve 2).
# (§3) FIGS. 11A-B is a set of curves showing the tumor growth of B16F1 melanoma in C57BL/6J (FIG. 11A) or NSG mice (FIG. 11B) treated with PBS (Control, curve 1) or guanfacine (5 mg/kg, i.p., curve 2).
# [5] = system: prostate cancer; experiment: Xenograft model of prostate cancer in NSG mice treated with PBMC; type: in vivo
# [6] = system: SKOV3 human ovarian tumor cells; settings: SKOV3 in NSG mice
# Procedure: SKOV3 human ovarian tumor cells were injected subcutaneously in immune deficient NSG mice. When tumors were palpable, tumor-bearing mice received adoptive cell transfer of 3×10^6 of allogeneic human PBMC (i.v.) and were injected daily with clonidine (5 mg/kg, i.p.) or vehicle (PBS, i.p.) until sacrifice.
# [7] = system: MC38 colon carcinomas; experiment: MC38 colon carcinoma in wildtype mice; type: in vivo, C57BL/6 Wildtype mice; settings: 5 mg/kg, i.p. daily from tumor size around 50 mm^3
# Procedure: (§4) C57BL/6 Wildtype or C57BL/6 Adra2a KO mice bearing MC38 colon carcinomas received daily injections of vehicle control (PBS), clonidine (5 mg/kg, i.p.) or guanabenz (5 mg/kg, i.p.), when the tumor size was around 50 mm^3, until the day of sacrifice.
# [8] = system: mammary adenocarcinoma; experiment: Tumor model: mammary adenocarcinoma; type: in vivo, mice; settings: mammary adenocarcinoma (FIG. 22F, 23F)
# Text: as §1
# [9] = system: TiRP melanoma; experiment: TiRP melanoma model, monotherapy; type: in vivo; settings: TiRP+/+ mice; 5 mg/kg, i.p. daily from tumor size around 250 mm^3
# Procedure: FIGS. 14A-B is a set of curves showing the tumor growth (melanoma) in TiRP+/+ mice that have received daily injections of guanfacine (5 mg/kg, i.p. triangles; FIG. 14A), clonidine (5 mg/kg, i.p., circles; FIG. 14B), or control (PBS, i.p., squares), when the tumor size was around 250 mm^3 until sacrifice.
# TiRP mice have been created by crossing Ink4a/Are^flox/flox mice with mice carrying a transgenic construct controlled by the tyrosinase promoter and driving the expression of H-Ras ^12V and Trapl a which encodes a MAGE-type tumor antigen P1A; the promoter is separated from the coding region by a stop cassette made of a floxed self-deleting CreER (Huijbers et al., 2006, Cancer Res 66, 3278-3286). Those mice were backcrossed to a B10.D2 background and bred to homozygosity. TCRP1A mice heterozygous for the H-2Ld/P1A35-43-specific TCR transgene were kept on the B10.D2;Rag1^−/− background (Shanker et al., 2004, J Immunol 172, 5069-5077). […]
# A fresh solution of 40H-Tamoxifen was prepared by dissolving 40H-Tamoxifen (Imaginechem®) in 100% ethanol and mineral oil (ratio 1:9) followed by 30 min sonication, and injected subcutaneously (2 mg/200 uL per mouse) in the neck area of gender-matched 7 weeks old TiRP mice. Tumor appearance was monitored daily and tumors were measured three times/week. Tumor volume (in mm^3) was calculated by the following formula: Volume=width^2×length/2.
# [10] = system: renal cancer; experiment: Tumor model: renal cancer; type: in vivo, mice; settings: renal cancer (FIG. 22G, 23G)
# Text: as §1
# [11] = system: JAK2V617F mutated bone marrow; experiment: Myelofibrosis by JAK2V617F bone marrow transplantation, platelet counts; type: in vivo, mice; settings: 5 mg/kg daily for three weeks
# Procedure: Murine femurs and tibias from JAK2V617F mutant mice were first harvested and cleaned thoroughly. Marrow cells were flushed into PBS with 2% fetal bovine serum using a 25G needle and syringe. Resulting cell suspensions were then filtered through a 40 uM cell strainer. Recipient mice were irradiated with two doses of 500 rad 4 h apart. 1 million of donor cells were injected into wild-type recipients by standard intravenous injection using a 27G insulin syringe. One week after bone marrow transplantation, mice were treated with guanabenz or clonidine at a dose of 5 mg/kg daily for three weeks. After three weeks of treatment, mice were dissected and peripheral blood was drawn by cardiac puncture, the platelet concentration was measured by Cell Counter Analyzer MS9-5V.
# [12] = system: hepatocellular carcinoma; experiment: Tumor model: hepatocellular carcinoma; type: in vivo, mice; settings: hepatocellular carcinoma (FIG. 22B, 23B)
# Text: as §1
# [13] = system: MC38 colon carcinomas; experiment: MC38 colon carcinoma in Adra2a KO mice; type: in vivo, C57BL/6 Adra2a KO mice; settings: 5 mg/kg, i.p. daily from tumor size around 50 mm^3
# Procedure: as §4
# [14] = system: B16F1 melanoma; experiment: B16F1 melanoma in immune deficient mice; type: in vivo; settings: B16F1 in immune deficient NSG mice; 5 mg/kg, i.p.
# Procedure: as §2, §3
# [15] = system: lung cancer; experiment: Tumor model: lung cancer; type: in vivo, mice; settings: lung cancer (FIG. 22D, 23D)
# Text: as §1
smiles,measurement,setting,value
Clc1cccc(Cl)c1N=C1NCCN1 [clonidine],tumor growth,[1],strong tumor inhibition
same,tumor growth,[2],strong tumor inhibition
same,tumor growth,[3],strong tumor inhibition
same,tumor growth,[4],inhibited tumor growth
same,tumor growth,[5],strong tumor inhibition
same,anti-tumor efficacy of human PBMC,"[6]; 3×10^6 PBMC i.v., 5 mg/kg i.p. daily",strongly increased the anti-tumor efficacy of human PBMC
same,expression of CD44 on tumor-infiltrated CD8+T cells,"[6]; PBMC, 5 mg/kg i.p.",increased expression of CD44
same,infiltration of CD4+ human T cells into tumors,"[6]; PBMC, 5 mg/kg i.p.",increased
same,infiltration of CD8+ human T cells into tumors,"[6]; PBMC, 5 mg/kg i.p.",increased
same,"tumor growth, compared to ACT alone","[6]; with ACT, 5 mg/kg i.p. daily",significantly decreased
same,"tumor weight on the day of sacrifice, compared to ACT alone","[6]; with ACT, 5 mg/kg i.p. daily",significantly decreased
same,tumor growth,[7],significant tumor inhibition
same,tumor growth,[8],strong tumor inhibition
same,"tumor volume, monotherapy",[9],efficient in decreasing the tumor volume
same,tumor growth,[10],strong tumor inhibition
same,platelet (PLT) counts,[11],significantly reduces the platelet (PLT) counts; also recorded: significantly reduced the high platelet counts
same,tumor growth,[12],strong tumor inhibition
same,tumor inhibition in Adra2a KO mice,[13],almost completely attenuated
same,tumor growth,[14],No tumor inhibition was found
same,tumor growth,[15],strong tumor inhibition

# From patent US20230165836A1, “ALPHA-2 ADRENERGIC RECEPTOR AGONISTS FOR THE TREATMENT OF CANCER” (UNIVERSITÉ CATHOLIQUE DE LOUVAIN, priority 2020, published 2023)
